Test results as given in US9326960B2, “Composition for preventing or treating eye diseases, containing S-allyl-L-cysteine as active ingredient, and pharmaceutical formulation containing same” (PHARMAKING CO., LTD., priority 2012, dated 2016).

Experiments:
[1] = tested on: Human retinal pigment epithelial cell line (ARPE-19); test: Cytoprotective activity against blue light-induced apoptosis of A2E-accumulated ARPE-19 cells (MTT assay); assay type: cell-based; conditions: A2E-accumulated ARPE-19 exposed to blue light; for increase of cell viability: compared to the negative control
Excerpt: The retinal pigment cell line used in experiments and analyses of the present invention arose from a retinal pigment epithelial cell line (ARPE-19: ATCC no. CRL-2302) purchased from the ATCC (American Type Culture Collection, Manassas Va.), and was maintained by passage as described in document (Sparrow, J. R. et al., A2E, alipofuscin fluorophore, in human retinal pigmented epithelial cells in culture. Invest Ophthalmol Vis Sci 1999, 40(12), 2988-95).
Briefly, the retinal pigment cell line was cultured in Dulbecco's modified Eagle's medium (DMEM, Gibco, USA) supplemented with antibiotics (Gibco, USA) including 100 U/ml penicillin, […] streptomycin, and amphotericin B, and 10% fetal bovine serum (Hyclone, USA) at 37° C. under 5% CO2 conditions. The cells were allowed to adhere to the bottom of the culture plate, and cultured, with passage by treatment with a mixture of 1:4 trypsin:10% fetal bovine serum (Gibco, USA)-supplemented medium upon confluence.
For use in experiments, the cells were seeded at a density of 5×10^4 cells/well into 6-well plates.
Cytoprotective Activity of S-Allyl-Cysteine Against Blue Light-Induced Apoptosis of A2E-Accumulated Human Retinal Pigment Epithelial Cell Line CARPE-19)
Human retinal pigment cell line (ARPE-19) was seeded at a density of 5×10^4 cells/well into 96-well plates, and incubated with 20 μM A2E for 7 days to accumulate A2E. Then, the cells were treated with a negative control, a positive control (lutein: 20 μM), or predetermined concentrations of S-allyl-cysteine (1, 10, 100 μM) before exposure to blue light as described above.
Thereafter, cell viability was measured using 3-(4,5-dimethylthiazol-2-yl)-2,5-diphenyltetrazoliumbromide (MTT) assay. An MTT assay is a standard colorimetric assay for assessing cell viability, usually in a lab. Generally, viable cells are counted using a hemocytometer, or by measuring optical density; however, this method requires too much time and labor for large numbers of cells, and is apt to yield inaccurate results. As an alternative, the MTT assay is designed such that the yellow substrate tetrazolium MTT is reduced by metabolically active cells, in part by the action of mitochondrial dehydrogenase enzymes, into purple formazan that can be solubilized and quantified by spectrophotometric means. This assay can analyze the proliferation behavior of large numbers of cells rapidly and accurately. […] More viable cells produce a greater amount of formazan crystals, recoding higher absorbance.
According to the MTT assay (Sigma-Aldrich Inc., St. Louis, Mo., U.S.A.), DMEM containing 0.5 mg/ml MTT was added to each well and incubated at 37° C. for 2 hrs in an incubator under dark conditions. […]

[2] = Suppressive activity against blue light-induced oxidation of A2E (cell-free, absorbance); conditions: 20 μM A2E in PBS, blue light ca. 430 nm, compared to non-treated
Experimental: Assay of S-Allyl-Cysteine for Suppressive Activity Against Blue Light-Induced Oxidation of A2E S-Allyl-cysteine was assayed for the ability to suppress the blue light-induced oxidation of A2E. First, 100 μM A2E was diluted to 20 μM in phosphate buffered saline (PBS), and 200 μl of the dilution was placed in each well of 96-well plates. Then, a negative control, a positive control (lutein 20 μM), or predetermined concentrations of S-allyl-cysteine (1, 10, 100 μM) were added to the dilution, and mixed by pipetting. An LED lamp emitting blue light with a central wavelength of ca. 430 nm was operated above the microplates to induce photo-oxidation until the A2E absorbance was reduced by half. Absorbance was read on an ELISA before and after the induction of photo-oxidation. The measurements were applied to an A2E standard curve to obtain concentrations of A2E, and the difference in concentration before and after exposure to blue light was used to obtain the concentration of oxidized A2E. From the data, the inhibitory activity of the sample against A2E photo-oxidation was calculated according to the following Mathematical Formula 1. In Formula 1, Abs. means absorbance. [formula] A=Abs. of A2E−Abs. of A2E+blue light B={Abs. of A2E+sample)−Abs. of sample}−{(Abs. of A2E+sample+blue light)−(Abs. of sample−Abs. of sample+blue light)} In order to evaluate the inhibitory activity of S-allyl-L-cysteine against A2E photooxidation, concentrations of oxidized A2E were measured after exposure to blue radiation as described in Experimental Example 1, and the results are depicted in FIG. 1.

Compound | cell viability versus negative control (result in words) ([1]; lutein 20 μM) | decrease of concentration of oxidized A2E ([2]; 1 μM S-allyl-cysteine) | decrease of concentration of oxidized A2E ([2]; 10 μM S-allyl-cysteine) | decrease of concentration of oxidized A2E ([2]; 100 μM S-allyl-cysteine) | increase of cell viability ([1]; 1 μM) | increase of cell viability ([1]; 10 μM) | increase of cell viability ([1]; 100 μM)
CC1=C[C@H](O)CC(C)(C)[C@H]1/C=C/C(C)=C/C=C/C(C)=C/C=C/C=C(C)/C=C/C=C(C)/C=C/C1=C(C)C[C@@H](O)CC1(C)C [positive control, lutein, reference compound] | significant difference in cell viability |  |  |  |  |  | 
C=CCSC[C@H](N)C(=O)O [S-allyl-cysteine, S-allyl-L-cysteine] |  | 20% | 32% | 41% | 63% | 134% | 167%
